Active and inactive are the calls of the source. The calls are words filed in the database; no cut-off is given here.
Columns and labels:
[1] = molecular target: T1, Histamine H2 receptor (Homo sapiens, UniProt P25021); assay: Antagonist activity at human recombinant histamine H2 receptor-Gsalphas fusion protein expressed in Sf9 cells assessed as inhibition of histamine-induced [35S]GTPgammaS binding after 90 mins by liquid scintillation counting; assay type: functional
[2] = molecular target: T1, Histamine H2 receptor; assay: Intrinsic activity at human recombinant histamine H2 receptor-Gsalphas fusion protein expressed in Sf9 cells assessed as [35S]GTPgammaS binding at 10 uM after 90 mins by liquid scintillation counting relative to histamine; assay type: functional
[3] = molecular target: T2, Histamine H4 receptor (Homo sapiens, UniProt Q9H3N8); assay: Agonist activity at human recombinant histamine H4 receptor-RGS19 fusion protein expressed in Sf9 cells coexpressing Galphai2,Gbeta1gamma2 assessed as [35S]GTPgammaS binding after 90 mins by liquid scintillation counting; assay type: functional
T2 sequence (Q9H3N8 whole entry, the tested form may be a part): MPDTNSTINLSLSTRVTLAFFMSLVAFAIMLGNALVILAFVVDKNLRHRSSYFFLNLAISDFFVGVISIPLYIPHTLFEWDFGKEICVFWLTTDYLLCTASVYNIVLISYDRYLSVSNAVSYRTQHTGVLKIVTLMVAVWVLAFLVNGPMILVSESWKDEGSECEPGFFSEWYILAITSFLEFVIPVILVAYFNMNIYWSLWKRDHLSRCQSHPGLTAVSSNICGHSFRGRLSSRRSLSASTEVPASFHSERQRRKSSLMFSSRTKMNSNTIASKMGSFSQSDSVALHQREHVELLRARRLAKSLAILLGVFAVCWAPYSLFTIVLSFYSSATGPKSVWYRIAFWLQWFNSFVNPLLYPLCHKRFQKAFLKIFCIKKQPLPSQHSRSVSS

[4] = molecular target: T3, Histamine H3 receptor (Homo sapiens, UniProt Q9Y5N1); assay: Agonist activity at human recombinant histamine H3 receptor expressed in Sf9 cells coexpressing Galphai2,Gbeta1gamma2 and RGS4 assessed as [35S]GTPgammaS binding after 90 mins by liquid scintillation counting; assay type: functional
T3 sequence (Q9Y5N1 whole entry): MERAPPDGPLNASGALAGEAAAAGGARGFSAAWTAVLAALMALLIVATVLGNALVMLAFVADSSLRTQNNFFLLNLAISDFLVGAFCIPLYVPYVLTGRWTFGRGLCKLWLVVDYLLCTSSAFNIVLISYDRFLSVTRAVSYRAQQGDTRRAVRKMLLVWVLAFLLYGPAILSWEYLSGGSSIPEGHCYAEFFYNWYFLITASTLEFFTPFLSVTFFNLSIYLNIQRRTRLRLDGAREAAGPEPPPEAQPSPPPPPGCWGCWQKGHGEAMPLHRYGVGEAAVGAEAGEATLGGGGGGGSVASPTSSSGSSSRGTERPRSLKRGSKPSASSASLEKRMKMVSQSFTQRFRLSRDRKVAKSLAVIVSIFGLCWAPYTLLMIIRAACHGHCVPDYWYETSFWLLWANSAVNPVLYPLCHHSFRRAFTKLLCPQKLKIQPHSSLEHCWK

[5] = molecular target: Histamine H1 receptor (Homo sapiens) (UniProt P35367); conditions: Sf9
Histamine H1 receptor (Homo sapiens), sequence (P35367 whole entry, the tested form may be a part): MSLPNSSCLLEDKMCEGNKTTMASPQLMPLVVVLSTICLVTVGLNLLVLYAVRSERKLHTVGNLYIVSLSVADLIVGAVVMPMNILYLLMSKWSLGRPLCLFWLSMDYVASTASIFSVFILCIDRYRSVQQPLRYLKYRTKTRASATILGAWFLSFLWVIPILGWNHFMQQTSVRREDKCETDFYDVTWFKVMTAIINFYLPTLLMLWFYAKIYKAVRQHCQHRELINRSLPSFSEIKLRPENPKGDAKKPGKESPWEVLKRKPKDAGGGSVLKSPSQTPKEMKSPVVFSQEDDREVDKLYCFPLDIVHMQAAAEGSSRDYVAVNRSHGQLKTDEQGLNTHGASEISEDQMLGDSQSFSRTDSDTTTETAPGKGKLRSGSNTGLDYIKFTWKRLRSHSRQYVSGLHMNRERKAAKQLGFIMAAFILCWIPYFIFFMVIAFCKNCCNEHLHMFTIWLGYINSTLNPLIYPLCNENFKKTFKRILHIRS

[6] = molecular target: T2, Histamine H4 receptor; assay: Antagonist activity at human recombinant histamine H4 receptor-RGS19 fusion protein expressed in Sf9 cells coexpressing Galphai2,Gbeta1gamma2 assessed as inhibition of histamine-induced [35S]GTPgammaS binding after 90 mins by liquid scintillation counting; assay type: functional
[7] = molecular target: T3, Histamine H3 receptor; assay: Antagonist activity at human recombinant histamine H3 receptor expressed in Sf9 cells coexpressing Galphai2,Gbeta1gamma2 and RGS4 assessed as inhibition of histamine-induced [35S]GTPgammaS binding after 90 mins by liquid scintillation counting; assay type: functional
[8] = molecular target: T2, Histamine H4 receptor; assay: Intrinsic activity at human recombinant histamine H4 receptor-RGS19 fusion protein expressed in Sf9 cells coexpressing Galphai2,Gbeta1gamma2 assessed as [35S]GTPgammaS binding at 10 uM after 90 mins by liquid scintillation counting relative to histamine; assay type: functional
[9] = molecular target: T3, Histamine H3 receptor; assay: Intrinsic activity at human recombinant histamine H3 receptor expressed in Sf9 cells coexpressing Galphai2,Gbeta1gamma2 and RGS4 assessed as [35S]GTPgammaS binding at 10 uM after 90 mins by liquid scintillation counting relative to histamine; assay type: functional
[10] = molecular target: Histamine H1 receptor (Homo sapiens) (UniProt P35367); assay: (§1) Antagonist activity at human recombinant histamine H1 receptor expressed in Sf9 cells coexpressing RGS4 assessed as inhibition of histamine-induced […] hydrolysis preincubated for 2 mins before [gamma32P]GTP addition measured after 20 mins by steady-state GTPase activity assay; assay type: functional
[11] = molecular target: Histamine H1 receptor (Homo sapiens) (UniProt P35367); assay: Intrinsic activity at human recombinant histamine H1 receptor expressed in Sf9 cells coexpressing RGS4 preincubated for 2 mins before [gamma32P]GTP addition measured after 20 mins by steady-state GTPase activity assay relative to histamine
[12] = molecular target: T2, Histamine H4 receptor; assay: as §1, with “H4 receptor-RGS19 fusion protein” for “H1 receptor”, “Galphai2,Gbeta1gamma2” for “RGS4”; assay type: functional
[13] = molecular target: T3, Histamine H3 receptor; assay: as §1, with “H3” for “H1”, “coexpressing Galphai2,Gbeta1gamma2 and” for “coexpressing”; assay type: functional
[14] = molecular target: T1, Histamine H2 receptor; assay: Antagonist activity at human recombinant histamine H2 receptor-Gsalphas fusion protein expressed in Sf9 cells assessed as inhibition of histamine-induced […] hydrolysis preincubated for 2 mins before [gamma32P]GTP addition measured after 20 mins by steady-state GTPase activity assay; assay type: functional
[15] = molecular target: T3, Histamine H3 receptor; assay: Intrinsic activity at human recombinant histamine H3 receptor expressed in Sf9 cells coexpressing Galphai2,Gbeta1gamma2 and RGS4 preincubated for 2 mins before [gamma32P]GTP addition measured after 20 mins by steady-state GTPase activity assay relative to histamine
[16] = molecular target: T1, Histamine H2 receptor; assay: Intrinsic activity at human recombinant histamine H2 receptor-Gsalphas fusion protein expressed in Sf9 cells preincubated for 2 mins before [gamma32P]GTP addition measured after 20 mins by steady-state GTPase activity assay relative to histamine
[17] = molecular target: T2, Histamine H4 receptor; assay: Intrinsic activity at human recombinant histamine H4 receptor-RGS19 fusion protein expressed in Sf9 cells coexpressing Galphai2,Gbeta1gamma2 preincubated for 2 mins before [gamma32P]GTP addition measured after 20 mins by steady-state GTPase activity assay relative to histamine

T1 sequence (P25021 whole entry, the tested form may be a part): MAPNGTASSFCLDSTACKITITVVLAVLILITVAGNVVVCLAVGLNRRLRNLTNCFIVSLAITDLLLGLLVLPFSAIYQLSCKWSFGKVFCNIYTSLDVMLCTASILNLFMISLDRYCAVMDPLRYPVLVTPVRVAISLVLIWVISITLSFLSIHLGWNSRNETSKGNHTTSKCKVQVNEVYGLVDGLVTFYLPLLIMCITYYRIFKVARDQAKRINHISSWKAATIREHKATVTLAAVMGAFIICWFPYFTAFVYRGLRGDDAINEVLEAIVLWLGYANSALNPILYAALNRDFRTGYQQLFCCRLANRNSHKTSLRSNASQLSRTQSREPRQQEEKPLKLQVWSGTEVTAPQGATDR

| Compound | pKb [1] | Intrinsic activity [2] | pEC50 [3] | pKb [7] | Intrinsic activity [8] | Intrinsic activity [9] | pKb [10] | Intrinsic activity [11] | also measured |
| --- | --- | --- | --- | --- | --- | --- | --- | --- | --- |
| N#C/N=C(/NCCCCNc1nc(N)n[nH]1)NCCSc1ccccc1 | < 5 | -0.09 | inactive |  |  |  |  |  | pEC50 [4]: inactive; pEC50 [5]: inactive |
| CN/C(=N/C#N)NCCCCc1c[nH]c(C)n1 | < 5 | 0.04 |  | < 5 | -0.23 | -0.13 | < 5 | 0.01 | pKb [6]: < 5 |
| CN/C(=N/C#N)NCCCCCn1ccnc1C | < 5 | -0.07 | inactive | < 5 | 0.06 | -0.26 | < 5 | -0.01 |  |
| N/C(=N\C(=O)CC(c1ccccc1)c1nccs1)NCCCc1ncc[nH]1 (configuration not stated) |  |  |  |  |  |  |  |  | pKb [12]: < 5; pKb [13]: 5.28; pKb [14]: 5.19; Intrinsic activity [15]: -0.46; Intrinsic activity [16]: 0 |
| CN/C(=N/C#N)NCCCCc1nc[nH]c1C | < 5 | 0.04 |  |  | 0.6 | 0.23 | < 5 | -0.03 | EC50 [3]: 3630 nM; EC50 [4]: 1070 nM |
| N/C(=N\C(=O)CC(c1ccccc1)c1ccccc1)NCCCc1ccccc1 |  |  |  |  |  |  | 5.26 | -0.01 | pKb [12]: < 5; pKb [13]: 5.1; pKb [14]: 5.89; Intrinsic activity [15]: -0.24; Intrinsic activity [16]: -0.12 |
| CN/C(=N/C#N)NCCCCc1nc(N)n[nH]1 | < 5 | 0.31 | inactive |  |  |  |  |  | pEC50 [4]: inactive; pEC50 [5]: inactive |
| S=C(NC1CCCCC1)N1CCC(c2cnc[nH]2)CC1 |  |  |  |  |  |  |  |  | Intrinsic activity [17]: -0.95 |
| Cc1nccn1CCCCCN/C(=N\C#N)NCCSc1ccccc1 | < 5 | -0.08 |  | < 5 | -0.05 | -0.42 | < 5 | 0.03 | pKb [6]: < 5 |
| CN(C)Cc1ccc(CCCN/C(N)=N/C(=O)CC(c2ccccc2)c2ccccc2)o1 |  |  |  |  |  |  | 5.11 | -0.02 | pKb [12]: < 5; pKb [13]: 5.89; pKb [14]: 7.03; Intrinsic activity [17]: -0.16; Intrinsic activity [15]: -0.65; Intrinsic activity [16]: -0.16 |
| CN/C(=N/C#N)NCCCNc1nc(N)n[nH]1 | < 5 | -0.03 | inactive |  |  |  |  |  | pEC50 [4]: inactive; pEC50 [5]: inactive |
| CN/C(=N\CCSCc1nc[nH]c1C)NC#N | 5.77 |  |  |  |  |  |  |  | pKb [6]: < 5 |
| CN(C)Cc1ccc(CCCN/C(N)=N/C(=O)CC(c2ccccc2)c2nccs2)o1 (configuration not stated) |  |  |  |  |  |  |  |  | pKb [12]: < 5; pKb [13]: 5.51; pKb [14]: 6.13; Intrinsic activity [15]: -0.62; Intrinsic activity [16]: -0.13 |
| CC(CC(=O)/N=C(\N)NCCCc1ccccc1)c1ccccc1 (configuration not stated) |  |  |  |  |  |  | 5.05 | -0.02 | pKb [12]: < 5; pKb [13]: < 5; pKb [14]: 5.89; Intrinsic activity [15]: -0.19; Intrinsic activity [16]: -0.1 |
| CC(CC(=O)/N=C(\N)NCCCc1ccc(CN(C)C)o1)c1cccs1 (configuration not stated) |  |  |  |  |  |  |  |  | pKb [12]: < 5; pKb [13]: 5.77; pKb [14]: 6.51; Intrinsic activity [17]: -0.14; Intrinsic activity [15]: -0.73; Intrinsic activity [16]: -0.12 |
| CN/C(=N/C#N)NCCCc1c[nH]c(C)n1 | < 5 | -0.02 |  | < 5 | 0.74 | -0.52 | inactive | inactive | EC50 [3]: 550 nM; pEC50 [5]: inactive |

| Compound | pKb [1] | Intrinsic activity [2] | pEC50 [3] | pKb [7] | Intrinsic activity [8] | Intrinsic activity [9] | pKb [10] | Intrinsic activity [11] | also measured |
| --- | --- | --- | --- | --- | --- | --- | --- | --- | --- |
| N#C/N=C(/NCCCNc1ccccn1)NCCSc1ccccc1 | < 5 | -0.12 |  | < 5 | -0.1 | -0.21 | < 5 | 0.02 | pKb [6]: < 5 |
| N#C/N=C(\NCCCCc1nc(N)n[nH]1)NCCSc1ccccc1 | < 5 | 0.03 | inactive |  |  |  | < 5 | 0.01 | pEC50 [4]: inactive |
| CN/C(=N\C#N)NCCCSc1nc(N)n[nH]1 | < 5 | -0.02 | inactive |  |  |  |  |  | pEC50 [4]: inactive; pEC50 [5]: inactive |
| N/C(=N\C(=O)CC(c1ccccc1)c1ccccc1)NCCCc1ccccn1 |  |  |  |  |  |  | 5.41 | 0.1 | pKb [12]: < 5; pKb [13]: 5.35; pKb [14]: 5.68; Intrinsic activity [15]: -0.44; Intrinsic activity [16]: 0 |
| N/C(=N\C(=O)CC(c1ccccc1)c1ccccc1)NCCCc1cccnc1 |  |  |  |  |  |  | 5.04 | 0.06 | pKb [12]: < 5; pKb [13]: < 5; pKb [14]: 6.14; Intrinsic activity [15]: -0.14; Intrinsic activity [16]: -0.16 |
| N#C/N=C(/NCCCCc1c[nH]cn1)NCCSc1ccccc1 |  |  |  | 6.14 | 0.88 | -0.52 |  | 7% | EC50 [3]: 37.2 nM |
| N#C/N=C(/NCCCSc1nc(N)n[nH]1)NCCSc1ccccc1 | < 5 | -0.05 | inactive |  |  |  |  |  | pEC50 [4]: inactive; pEC50 [5]: inactive |
| N#C/N=C(/NCCNc1nccc(N)n1)NCCSc1ccccc1 | < 5 | -0.08 | inactive | < 5 |  | -1.43 | < 5 | 0.01 |  |
| N#C/N=C(\NCCNc1ccnc(N)n1)NCCSc1ccccc1 | < 5 | -0.07 |  | 5.54 | -0.83 | -1.03 | < 5 | -0.02 | pKb [6]: 5.43 |
| N/C(=N\C(=O)CC(c1ccccc1)c1ccccc1)NCCCc1ccncc1 |  |  |  |  |  |  | < 5 | 0.08 | pKb [12]: < 5; pKb [13]: 5.06; pKb [14]: 6.14; Intrinsic activity [15]: -0.08; Intrinsic activity [16]: -0.12 |
| Cc1nc(CCCN/C(=N\C#N)NCCSc2ccccc2)c[nH]1 | < 5 | -0.05 |  | < 5 | 0.4 | -1.11 | < 5.3 | 0.03 | EC50 [3]: 468 nM |
| N#C/N=C(/NCCCNc1nccc(N)n1)NCCSc1ccccc1 | < 5 | -0.11 |  | 5.14 | -0.09 | -0.71 | < 5 | 0.01 | pKb [6]: < 5 |
| N#C/N=C(\NCCCCc1cnn[nH]1)NCCSc1ccccc1 | < 5 | -0.04 | inactive |  |  |  | < 5 | -0.02 | pEC50 [4]: inactive |
| N#C/N=C(/NCCCCNc1ccccn1)NCCSc1ccccc1 | < 5 | -0.13 |  | < 5 | -0.34 | -0.36 | < 5 | -0.01 | pKb [6]: < 5 |
| N#C/N=C(\NCCCNc1nc(N)n[nH]1)NCCSc1ccccc1 | < 5 | -0.01 | inactive |  |  |  |  |  | pEC50 [4]: inactive; pEC50 [5]: inactive |
